Emax and EC50 data for 23 compounds are collected here from patent US20250101041A1, “POSITIVE ALLOSTERIC MODULATORS OF THE MUSCARINIC ACETYLCHOLINE RECEPTOR M4” (Vanderbilt University, priority 2022, published 2025).

The target of this assay is T1, human mAChR M4 (Homo sapiens, UniProt P08173).
T1 construct: expressed in transfected cells; host or cells: CHO-K1 (American Type Culture Collection), stably expressing hM4 and Gqi5
T1 sequence (P08173 1-479): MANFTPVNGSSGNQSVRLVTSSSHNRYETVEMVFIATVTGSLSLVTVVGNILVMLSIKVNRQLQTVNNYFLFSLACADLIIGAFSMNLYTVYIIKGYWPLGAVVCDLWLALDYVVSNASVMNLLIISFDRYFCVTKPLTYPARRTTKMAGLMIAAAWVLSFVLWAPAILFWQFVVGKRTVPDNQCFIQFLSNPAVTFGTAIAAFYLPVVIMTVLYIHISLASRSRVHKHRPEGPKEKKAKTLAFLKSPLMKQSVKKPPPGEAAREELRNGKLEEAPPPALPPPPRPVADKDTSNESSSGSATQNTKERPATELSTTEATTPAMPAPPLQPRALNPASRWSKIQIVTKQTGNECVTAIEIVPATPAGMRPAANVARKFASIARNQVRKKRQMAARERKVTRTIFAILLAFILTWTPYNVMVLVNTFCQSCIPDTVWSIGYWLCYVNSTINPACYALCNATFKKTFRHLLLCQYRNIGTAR
Briefly: mAChR M4 cell-based functional assay: calcium mobilization (Fluo-4, FDSS), potentiation of EC20 acetylcholine response in hM4-Gqi5 CHO-K1 cells. To be noted: human M4; for Emax at 30 µM: CHO-K1, % ACh maximum at 30 μM; for EC50: potentiation of EC20 acetylcholine response, calcium mobilization. An outline of the steps: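 CHO-K1 cells stably co-expressing human M4 and chimeric Gqi5, loaded with Fluo-4 AM (50 min, 37 °C). Compounds in 11-point 1:3 series added first; EC20 acetylcholine added at 144 s and again at 230 s. Calcium read on FDSS at 1 Hz; EC50 and Emax from four-parameter logistic fit of potentiated EC20 response.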
(In general: A change in cytosolic calcium serves as a functional read-out for many receptors and channels.)

The Emax is the greatest response seen or fitted, relative to the assay's reference. The term EC50 denotes the midpoint of the concentration-response curve. On to `Cc1cc(=O)n2nc(N3CCc4ncc(N5CCO[C@H](C)C5)cc4C3)c(C)cc2n1` [Compound 2-18, (R)-2,8-dimethyl-7-(3-(2-methylmorpholino)-7,8-dihydro-1,6-naphthyridin-6(5H)-yl)-4H-pyrimido[1,2-b]pyridazin-4-one], for which the Emax at 30 µM came out at 92% and the EC50 came to 80 nM.
On to `Cc1cc(=O)n2nc(N3CCc4ncc(Nc5cccnc5F)cc4C3)c(C)cc2n1` [Compound 2-19, 7-(3-((2-fluoropyridin-3-yl)amino)-7,8-dihydro-1,6-naphthyridin-6(5H)-yl)-2,8-dimethyl-4H-pyrimido[1,2-b]pyridazin-4-one], for which the Emax at 30 µM turned out to be 79% and the EC50 was 60 nM.
As for `Cc1cc(=O)n2nc(N3CCc4ncc(Nc5ccnn5C)cc4C3)c(C)cc2n1` [Compound 2-20, 2,8-dimethyl-7-(3-((1-methyl-1H-pyrazol-5-yl)amino)-7,8-dihydro-1,6-naphthyridin-6(5H)-yl)-4H-pyrimido[1,2-b]pyridazin-4-one], the Emax at 30 µM is 88% and the EC50 turned out to be 166 nM.
In the case of `Cc1cc(=O)n2nc(N3CCc4ncc(N5CCCn6nc(C)cc65)cc4C3)c(C)cc2n1` [Compound 2-21, 2,8-dimethyl-7-(3-(2-methyl-6,7-dihydropyrazolo[1,5-a]pyrimidin-4(5H)-yl)-7,8-dihydro-1,6-naphthyridin-6(5H)-yl)-4H-pyrimido[1,2-b]pyridazin-4-one], the Emax at 30 µM was found to be 87% and the EC50 worked out at 37 nM.
As for `Cc1cc(=O)n2nc(N3CCc4ncc(-n5cccn5)cc4C3)c(C)cc2n1` [Compound 2-22, 7-(3-(1H-pyrazol-1-yl)-7,8-dihydro-1,6-naphthyridin-6(5H)-yl)-2,8-dimethyl-4H-pyrimido[1,2-b]pyridazin-4-one], the Emax at 30 µM was 56% and the EC50 was found to be 97 nM.
The like results for `Cc1cc(=O)n2nc(N3CCc4ncc(N5CCCn6nccc65)cc4C3)c(C)c(C)c2n1` [Compound 2-23, 7-(3-(6,7-dihydropyrazolo[1,5-a]pyrimidin-4(5H)-yl)-7,8-dihydro-1,6-naphthyridin-6(5H)-yl)-2,8,9-trimethyl-4H-pyrimido[1,2-b]pyridazin-4-one] were, in that order, 83% and 18 nM.
Take `Cc1cc2nc(C(F)F)cc(=O)n2nc1N1CCc2ncc(N3CCOC(C)(C)C3)cc2C1` [Compound 2-24, 2-(difluoromethyl)-7-(3-(2,2-dimethylmorpholino)-7,8-dihydro-1,6-naphthyridin-6(5H)-yl)-8-methyl-4H-pyrimido[1,2-b]pyridazin-4-one]: the Emax at 30 µM came out at 95% and the EC50 worked out at 51 nM.
Take `Cc1cc2nc(C(F)F)cc(=O)n2nc1N1CCc2ncc(N3CCO[C@H](C)C3)cc2C1` [Compound 2-25, (R)-2-(difluoromethyl)-8-methyl-7-(3-(2-methylmorpholino)-7,8-dihydro-1,6-naphthyridin-6(5H)-yl)-4H-pyrimido[1,2-b]pyridazin-4-one]: the Emax at 30 µM came out at 90% and the EC50 amounted to 209 nM.
Take `Cc1cc2nc(C(F)F)cc(=O)n2nc1N1CCc2ncc(-n3cccn3)cc2C1` [Compound 2-26, 7-(3-(1H-pyrazol-1-yl)-7,8-dihydro-1,6-naphthyridin-6(5H)-yl)-2-(difluoromethyl)-8-methyl-4H-pyrimido[1,2-b]pyridazin-4-one]: the Emax at 30 µM came to 87% and the concentration giving a half-maximal response (EC50) was determined as 105 nM.
The like results for `Cc1cc2nc(C(F)F)cc(=O)n2nc1N1CCc2ncc(Nc3ccnn3C)cc2C1` [Compound 2-27, 2-(difluoromethyl)-8-methyl-7-(3-((1-methyl-1H-pyrazol-5-yl)amino)-7,8-dihydro-1,6-naphthyridin-6(5H)-yl)-4H-pyrimido[1,2-b]pyridazin-4-one] were, in that order, 86% and 41 nM.
For `Cc1cc2n(n1)CCCN2c1cnc2c(c1)CN(c1nn3c(=O)cc(C(F)F)nc3cc1C)CC2` [Compound 2-28, 2-(difluoromethyl)-8-methyl-7-(3-(2-methyl-6,7-dihydropyrazolo[1,5-a]pyrimidin-4(5H)-yl)-7,8-dihydro-1,6-naphthyridin-6(5H)-yl)-4H-pyrimido[1,2-b]pyridazin-4-one], the Emax at 30 µM was found to be 85% and the EC50 is 19 nM.
For `Cc1cc2nc(C(F)F)cc(=O)n2nc1N1CCc2ncc(N3CCOc4ncccc43)cc2C1` [Compound 2-29, 2-(difluoromethyl)-7-(3-(2,3-dihydro-1H-pyrido[2,3-b][1,4]oxazin-1-yl)-7,8-dihydro-1,6-naphthyridin-6(5H)-yl)-8-methyl-4H-pyrimido[1,2-b]pyridazin-4-one], the Emax at 30 µM stood at 90% and the EC50 came out at 13 nM.
Take `Cc1c(N2CCc3ncc(N4CCCn5nccc54)cc3C2)nn2c(=O)cc(C(F)(F)F)nc2c1C` [Compound 2-30, 7-(3-(6,7-dihydropyrazolo[1,5-a]pyrimidin-4(5H)-yl)-7,8-dihydro-1,6-naphthyridin-6(5H)-yl)-8,9-dimethyl-2-(trifluoromethyl)-4H-pyrimido[1,2-b]pyridazin-4-one]: the Emax at 30 µM stood at 83% and the EC50 is 20 nM.
As to `Cc1c(N2CCc3ncc(N4CCCn5nccc54)cc3C2)nn2c(=O)cc(C(F)F)nc2c1C` [Compound 2-31, 2-(difluoromethyl)-7-(3-(6,7-dihydropyrazolo[1,5-a]pyrimidin-4(5H)-yl)-7,8-dihydro-1,6-naphthyridin-6(5H)-yl)-8,9-dimethyl-4H-pyrimido[1,2-b]pyridazin-4-one], the Emax at 30 µM turned out to be 91% and the 50% effective concentration (EC50) came out at 14 nM.
Take `Cc1c(N2CCc3ncc(N4CCO[C@H](C)C4)cc3C2)nn2c(=O)ccnc2c1C` [Compound 2-32, (R)-8,9-dimethyl-7-(3-(2-methylmorpholino)-7,8-dihydro-1,6-naphthyridin-6(5H)-yl)-4H-pyrimido[1,2-b]pyridazin-4-one]: the Emax at 30 µM was 94% and the EC50 turned out to be 84 nM.
For `Cc1c(N2CCc3ncc(N4CCOc5ncccc54)cc3C2)nn2c(=O)ccnc2c1C` [Compound 2-33, 7-(3-(2,3-dihydro-1H-pyrido[2,3-b][1,4]oxazin-1-yl)-7,8-dihydro-1,6-naphthyridin-6(5H)-yl)-8,9-dimethyl-4H-pyrimido[1,2-b]pyridazin-4-one], the maximal effect (Emax) at 30 µM came to 89% and the EC50 was 15 nM.
Turning to `Cc1c(N2CCc3ncc(-n4cccn4)cc3C2)nn2c(=O)ccnc2c1C` [Compound 2-34, 7-(3-(1H-pyrazol-1-yl)-7,8-dihydro-1,6-naphthyridin-6(5H)-yl)-8,9-dimethyl-4H-pyrimido[1,2-b]pyridazin-4-one], the Emax at 30 µM is 77% and the EC50 amounted to 318 nM.
For the compound `Cc1cc2n(n1)CCCN2c1cnc2c(c1)CN(c1nn3c(=O)ccnc3c(C)c1C)CC2` [Compound 2-35, 8,9-dimethyl-7-(3-(2-methyl-6,7-dihydropyrazolo[1,5-a]pyrimidin-4(5H)-yl)-7,8-dihydro-1,6-naphthyridin-6(5H)-yl)-4H-pyrimido[1,2-b]pyridazin-4-one], the maximum response (Emax) at 30 µM worked out at 96% and the half-maximal effective concentration (EC50) came out at 46 nM.
With `Cc1c(N2CCc3ncc(N4CCCn5nccc54)cc3C2)nn2c(=O)ccnc2c1C` [Compound 2-36, 7-(3-(6,7-dihydropyrazolo[1,5-a]pyrimidin-4(5H)-yl)-7,8-dihydro-1,6-naphthyridin-6(5H)-yl)-8,9-dimethyl-4H-pyrimido[1,2-b]pyridazin-4-one], the Emax at 30 µM turned out to be 103% and the EC50 is 13 nM.
On to `Cc1cc(=O)n2nc(N3CCc4ncc(N5CC6CC5CO6)cc4C3)c(C)c(C)c2n1` (stereo not shown) [Compound 2-37, 7-(3-(2-oxa-5-azabicyclo[2.2.1]heptan-5-yl)-7,8-dihydro-1,6-naphthyridin-6(5H)-yl)-2,8,9-trimethyl-4H-pyrimido[1,2-b]pyridazin-4-one], for which the maximum response (Emax) at 30 µM stood at 81% and the EC50 turned out to be 1340 nM.
As to `Cc1cc(=O)n2nc(N3CCc4ncc(N5C[C@@H](C)O[C@@H](C)C5)cc4C3)c(C)c(C)c2n1` [Compound 2-38, 7-(3-((2R,6S)-2,6-dimethylmorpholino)-7,8-dihydro-1,6-naphthyridin-6(5H)-yl)-2,8,9-trimethyl-4H-pyrimido[1,2-b]pyridazin-4-one], the Emax at 30 µM was found to be 76% and the EC50 was found to be 1300 nM.
On to `Cc1cc(=O)n2nc(N3CCc4ncc(N5CCOC(C)(C)C5)cc4C3)c(C)c(C)c2n1` [Compound 2-39, 7-(3-(2,2-dimethylmorpholino)-7,8-dihydro-1,6-naphthyridin-6(5H)-yl)-2,8,9-trimethyl-4H-pyrimido[1,2-b]pyridazin-4-one], for which the Emax at 30 µM was found to be 96% and the EC50 worked out at 123 nM.
Turning to `Cc1c(N2CCc3ncc(N4CCOC(C)(C)C4)cc3C2)nn2c(=O)cc(C(F)F)nc2c1C` [Compound 2-40, 2-(difluoromethyl)-7-(3-(2,2-dimethylmorpholino)-7,8-dihydro-1,6-naphthyridin-6(5H)-yl)-8,9-dimethyl-4H-pyrimido[1,2-b]pyridazin-4-one], the Emax at 30 µM came to 90% and the EC50 came out at 29 nM.
